Results published in patent US12458631B2, “Use of dihydroberberine or its derivatives for anti-glycation” (NANJING NUTRABUILDING BIO-TECH CO., LTD., priority 2022, dated 2025).

Legend:
Type in all cases: in vivo, Kunming mice
[1] = system: SOD; experiment: SOD activity in skin of D-galactose-injected mice; settings: 14th week
Experimental: (§1) Six-week-old, male, Kunming mice, weighed about 30±2 g, were obtained from Cavens Lab Animal (Changzhou, China) and housed in a controlled room (25±2° C., 60% relative humidity, 12 h light/dark cycle) with free access to water and standard laboratory diet. After an acclimation period (1 week), mice were randomly divided into 3 groups of 9 animals. Choose the mice's back skin as the experimental observation area, use a razor to shave off the back hair of the mice. Apply 5% sodium sulfide solution to the back of the mice to remove the hair. Then all mice were injected subcutaneously with the same volume of D-galactose (1000 mg/kg), once a day for 8 weeks. During the entire process of the experiment, the daily food intake and weight of mice were recorded every day, and the D-galactose injection dose was adjusted following the weight change. The 3 groups of 9 animals were (1) non-supplement group (Con, Group 1); (2) DHB supplement group (DHB, 100 mg/kg, Group 2); (3) DHB supplement group (DHB, 200 mg/kg, Group 3). […] The levels of H2O2, MDA, SOD, CAT, GSH, and GSH-Px in the skin were detected with relative kits as reference. […] Quantitative polymerase chain reaction (QPCR) and western blot methods were used to measure the expression of MMP-1 in the skin.

[2] = system: skin collagen fibers; experiment: Masson staining, quantification of skin collagen fibers in D-galactose-injected mice; settings: 14th week
Experimental: Six-week-old, male, Kunming mice, weighed about 30±2 g, were obtained from Cavens Lab Animal (Changzhou, China) and housed in a controlled room (25±2° C., 60% relative humidity, 12 h light/dark cycle) with free access to water and standard laboratory diet. After an acclimation period (1 week), mice were randomly divided into 3 groups of 9 animals. Choose the mice's back skin as the experimental observation area, use a razor to shave off the back hair of the mice. Apply 5% sodium sulfide solution to the back of the mice to remove the hair. Then all mice were injected subcutaneously with the same volume of D-galactose (1000 mg/kg), once a day for 8 weeks. During the entire process of the experiment, the daily food intake and weight of mice were recorded every day, and the D-galactose injection dose was adjusted following the weight change. The 3 groups of 9 animals were (1) non-supplement group (Con, Group 1); (2) DHB supplement group (DHB, 100 mg/kg, Group 2); (3) DHB supplement group (DHB, 200 mg/kg, Group 3). […] To further examine the content of skin collagen fibers, this was determined by Masson's staining. Then quantitation of skin epidermis and dermis, and collagen were calculated based on the results of observation.

[3] = system: H2O2; experiment: H2O2 content in skin homogenate of D-galactose-injected mice; settings: 14th week
Experimental: as §1

[4] = system: MDA; experiment: MDA content in skin of D-galactose-injected mice (kit/ELISA); settings: group 3, DHB 200 mg/kg s.c., 14th week
Experimental: as §1

[5] = system: GSH; experiment: GSH activity in skin of D-galactose-injected mice; settings: DHB groups (100 and 200 mg/kg s.c.), 14th week
Experimental: as §1

[6] = system: skin epidermis and dermis; experiment: H&E staining, quantitation of skin epidermis and dermis in D-galactose-injected mice; settings: 14th week
Experimental: Six-week-old, male, Kunming mice, weighed about 30±2 g, were obtained from Cavens Lab Animal (Changzhou, China) and housed in a controlled room (25±2° C., 60% relative humidity, 12 h light/dark cycle) with free access to water and standard laboratory diet. After an acclimation period (1 week), mice were randomly divided into 3 groups of 9 animals. Choose the mice's back skin as the experimental observation area, use a razor to shave off the back hair of the mice. Apply 5% sodium sulfide solution to the back of the mice to remove the hair. Then all mice were injected subcutaneously with the same volume of D-galactose (1000 mg/kg), once a day for 8 weeks. During the entire process of the experiment, the daily food intake and weight of mice were recorded every day, and the D-galactose injection dose was adjusted following the weight change. The 3 groups of 9 animals were (1) non-supplement group (Con, Group 1); (2) DHB supplement group (DHB, 100 mg/kg, Group 2); (3) DHB supplement group (DHB, 200 mg/kg, Group 3). Mice in group 2 and group 3 were injected subcutaneously (s.c.) into their back skins with the corresponding concentrations of DHB before each major meal once daily for 6 weeks. All mice were sacrificed following 6 weeks at the end of the experiment. The skin tissue was divided into three parts, the first part was stored at −80° C. until assays were performed, the second part was immediately collected, weighed and homogenized (4° C.; 3500 rpm for 15 min) for biochemical and histological analyses, and the third part was fixed in 10% formalin until further use. Hematoxylin-eosin staining (H&E) and Masson staining were performed on skin samples. Skins were fixed in 10% formalin 48 h at room temperature and paraffin-embedded afterward. With H&E staining, skins were sliced into 4 μm, dehydrated of gradient ethanol, and stained with hematoxylin and eosin. For Masson staining, sliced skins were stained with a Masson kit as the instruction said. H&E staining to observe the skin epidermis and dermis structure change and analyze stained collagen fibers by Image-Pro Plus 6.0 in the perspective of 400 times to detect the percentage of collagen fibers area. To further examine the content of skin collagen fibers, this was determined by Masson's staining. Then quantitation of skin epidermis and dermis, and collagen were calculated based on the results of observation.

[7] = system: CAT; experiment: CAT activity in skin of D-galactose-injected mice; settings: DHB groups (100 and 200 mg/kg s.c.), 14th week
Experimental: as §1

[8] = system: GSH-Px; experiment: GSH-Px activity in skin of D-galactose-injected mice; settings: 14th week
Experimental: as §1

[9] = Fasting blood glucose level by glucometer in D-galactose-injected mice; settings: for blood glucose level decreased compared to the non-supplement group: 14th week
Experimental: Six-week-old, male, Kunming mice, weighed about 30±2 g, were obtained from Cavens Lab Animal (Changzhou, China) and housed in a controlled room (25±2° C., 60% relative humidity, 12 h light/dark cycle) with free access to water and standard laboratory diet. After an acclimation period (1 week), mice were randomly divided into 3 groups of 9 animals. Choose the mice's back skin as the experimental observation area, use a razor to shave off the back hair of the mice. Apply 5% sodium sulfide solution to the back of the mice to remove the hair. Then all mice were injected subcutaneously with the same volume of D-galactose (1000 mg/kg), once a day for 8 weeks. During the entire process of the experiment, the daily food intake and weight of mice were recorded every day, and the D-galactose injection dose was adjusted following the weight change. The 3 groups of 9 animals were (1) non-supplement group (Con, Group 1); (2) DHB supplement group (DHB, 100 mg/kg, Group 2); (3) DHB supplement group (DHB, 200 mg/kg, Group 3). Mice in group 2 and group 3 were injected subcutaneously (s.c.) into their back skins with the corresponding concentrations of DHB before each major meal once daily for 6 weeks. When all mice were on fasting, collect approximately 10 μL of blood by the tail nick for 3 times, at the beginning of the trial (0 week), after the D-galactose injection (8th week), and at the end of the trial (14th week). Use the glucometer to measure the glucose level.

[10] = system: MMP-1; experiment: MMP-1 expression in skin (QPCR and western blot) of D-galactose-injected mice; settings: 14th week
Experimental: as §1

[11] = DHB groups (100 and 200 mg/kg s.c.)
[12] = DHB supplemented groups (100 and 200 mg/kg s.c.)

SMILES: COc1ccc2c(c1OC)CN1CCc3cc4c(cc3C1=C2)OCO4 [DHB, Dihydroberberine]
- SOD activity after DHB supplementation [1, 11]: significantly improved
- SOD increase compared to non-supplementation group ([1]; group 3, DHB 200 mg/kg s.c.): about 2.9 times
- contents of collagen in the skin tissue compared with the control group ([2]; DHB supplement groups (100 and 200 mg/kg s.c.)): significantly higher
- content of collagen in the skin tissue, higher than control group ([2]; higher dose group, DHB 200 mg/kg s.c.): 2.2 times
- H2O2 content decreased compared to the non-supplement group ([3]; group 2, DHB 100 mg/kg s.c.): about 33%
- H2O2 content decreased compared to the non-supplement group ([3]; group 3, DHB 200 mg/kg s.c.): ~58%
- content of MDA lower than in the control group [4]: 63%
- GSH activity after DHB supplementation [5]: significantly improved
- dermal thickness vs control group [6, 12]: significant thicker
- epidermal thickness vs control group [6, 12]: significant thicker
- prevention or reduction of dermal thickness decrease ([6]; group 3, DHB 200 mg/kg s.c.): 78%
- prevention or reduction of epidermal thickness decrease ([6]; group 3, DHB 200 mg/kg s.c.): 72%
- CAT activity after DHB supplementation [7]: significantly improved
- GSH-Px activity after DHB supplementation [8, 11]: significantly improved
- GASH-Px increase compared to non-supplementation group ([8]; group 3, DHB 200 mg/kg s.c.): ~1.8 times
- blood glucose levels after supplementation [9, 11]: decreased significantly
- blood glucose level decreased compared to the non-supplement group ([9]; group 2, DHB 100 mg/kg s.c. once daily for 6 weeks): about 39%
- blood glucose level decreased compared to the non-supplement group ([9]; group 3, DHB 200 mg/kg s.c. once daily for 6 weeks): ~44%
- MMP-1 expression reduced compared to non-supplement group ([10]; group 2, DHB 100 mg/kg s.c.): about 23%
- MMP-1 expression reduced compared to non-supplement group ([10]; group 3, DHB 200 mg/kg s.c.): about 51%
